Test system: T1, human plasma alpha 1-acid glycoprotein (hAGP)
T1 construct: gene ORM1; native, purified from human plasma (commercial, Sigma-Aldrich); secreted glycoprotein, signal peptide removed; plasma preparation is normally a mix of ORM1 and ORM2 products
Assay: luminescence intensity, Michaelis-Menten fit
Type: biochemical
Details: 50 mM Gly-NaOH pH 9.5, room temperature, 25 μg/mL hAGP; hAGP treated as a luciferase

Km: 0.46 µM
SMILES: CC[C@H](C)c1nc2c(CCCNC(=N)N)[nH]c(-c3c[nH]c4ccccc34)cn-2c1=O [Cypridina luciferin]
